Measured values reported in US20220251085A1, “CYSTEINE BINDING COMPOSITIONS AND METHODS OF USE THEREOF” (University of Virginia Patent Foundation, priority 2019, published 2022).

Experiments:
C57Bl/6 mice = experiment: In vivo activity of purine probes in mouse tissues, gel-based; conditions: for time of peak / most robust labeling in vivo: 20 mg/kg probe
Description: Mouse Treatment and Tissue Preparation Methods: 8-12 week old male and female C57Bl/6 mice were treated intraperitoneally (IP) or by oral gavage (OG) with either AHL125 (Pu-1 or AHL-Pu-1), AHL128 (Pu-2 or AHL-Pu-2), or vehicle (18:1:2, PBS:PEG40:DMSO) at 20 mg/kg unless stated otherwise. Treatment time is indicated in the experiment below. Mice were then euthanized and perfused using PBS. Tissues were then harvested, rinsed and flash frozen using liquid nitrogen and stored at −80° C. until further use. Tissues were lysed using dounce homgenization in the presence of PBS+protease inhibitor. Initial suspensions were centrifuged at 3000×g for 5 minutes to remove insoluble material. The lysate was collected and centrifuged again at 100,000×g for 45 minutes to obtain the soluble fraction. Purine probe modified proteins from treated mice were conjugated to rhodamine-azide by CuAAC, subjected to SDS-PAGE analysis, and detected by in-gel fluorescence scanning. SDS-PAGE gels were stained with Coomassie brilliant blue to determine protein load. All samples were loaded with equivalent amounts of protein. Thus, changes in purine probe labeling is not due to loading of different proteome amounts.
Mice were also treated with 80 mg/kg oral gavage (OG) to determine whether purine probes are orally bioavailable. Mice were treated for four hours.

[1] = target: T1, human eEF-Sec (Uniprot ID P57772) (Homo sapiens, UniProt P57772); experiment: Purine probe labeling of recombinant eEF-Sec expressed in HEK293T cells, gel-based; assay type: cell-based; conditions: 50 μM probe, live cells, 0.5 to 2 hours
T1 construct: FLAG; expressed in transfected cells; host or cells: HEK293T
T1 sequence (P57772 1-596): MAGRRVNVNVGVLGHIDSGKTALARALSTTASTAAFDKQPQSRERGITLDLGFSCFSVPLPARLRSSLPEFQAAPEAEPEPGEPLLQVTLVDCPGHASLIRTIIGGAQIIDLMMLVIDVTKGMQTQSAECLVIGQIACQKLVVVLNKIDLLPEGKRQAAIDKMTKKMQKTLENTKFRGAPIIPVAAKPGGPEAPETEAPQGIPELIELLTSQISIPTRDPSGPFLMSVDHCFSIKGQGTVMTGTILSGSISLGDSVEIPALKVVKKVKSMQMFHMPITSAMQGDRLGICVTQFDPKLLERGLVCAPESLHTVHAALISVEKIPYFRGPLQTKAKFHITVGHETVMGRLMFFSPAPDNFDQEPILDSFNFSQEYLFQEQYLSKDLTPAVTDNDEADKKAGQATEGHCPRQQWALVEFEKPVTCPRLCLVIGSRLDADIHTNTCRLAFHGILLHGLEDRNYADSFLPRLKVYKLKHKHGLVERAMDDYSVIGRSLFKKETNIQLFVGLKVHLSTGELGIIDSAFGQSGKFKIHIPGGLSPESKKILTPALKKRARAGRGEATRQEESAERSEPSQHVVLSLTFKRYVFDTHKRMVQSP
Description: Methods: HEK293T cells were grown at 37° C. in 5% CO2 until 40% confluent. Recombinant human eEF-Sec (Uniprot ID P57772) was expressed by transient transfection for 48 hours. […] Lysates were spun at 100,000×g for 45 minutes. […] Purine probe modified proteins were conjugated to rhodamine-azide by CuAAC, subjected to SDS-PAGE analysis, and detected by in-gel fluorescence scanning. Comparison of non-transfected (Mock) and transfected proteomes was used to identify the recombinant eEF-Sec purine probe-labeled band. […] Reduction in fluorescent signals from purine probe labeling was indicative of Pi ligand inhibitory activity. Mut represents eEF-Sec mutant where cysteine residue 442 is mutated to alanine (C442A).
SDS-PAGE gels were transferred to nitrocellulose membrane. Nitrocellulose blots were blocked with 5% BSA. Blots were washed five times with TBS-T. Recombinant protein expression was detected using an anti-FLAG primary antibody (1:1,000) followed by fluorescent secondary antibody (1:10,000) to determine if there was equivalent protein expression across different treatment conditions.

[2] = system: proteomes of DM93, Hela, A549, HEK293T, and Jurkat cells; experiment: Quantitative chemical proteomics (LC-MS) of Pu-1 and Pu-2 modified proteins; assay type: cell-based, HUMAN
Description: Cells were grown at 37° C. in 5% CO2 until 90% confluent. Once confluent cells were washed with serum free media and treated with purine probes (Pu-1, Pu-2) at a final concentration of 25 μM for 4 hours. Cells were then scraped and washed 3× with cold PBS and lysed in PBS+protease inhibitor. Lysates were spun at 100,000×g for 45 minutes. Purine probe-modified proteins in soluble fractions were coupled to desthiobiotin-azide using copper-catalyzed azide-alkyne cycloaddition (CuAAC; 1 hour, room temperature), probe-modified proteins digested into peptides using trypsin protease, probe-modified peptides enriched by avidin affinity chromatography, and subjected to LC-MS quantitative chemical proteomics as previously described.^15 The following cell lines were used for analysis: DM93, Hela, A549, HEK293T, and Jurkat. […]
Chemical proteomics performed as described in Example 9 determined several protein modification sites targeted by Pu-1 and/or Pu-2. […]

[3] = system: DM93 cells lysates (soluble fractions); experiment: Lysate activity of purine probes, gel-based (in-gel fluorescence); assay type: biochemical; conditions: for protein labeling activity in lysates: DM93 soluble fractions, 25 μM, 2 hrs, 37° C.
Description: Lysate Activity Method: DM93 cells were grown at 37° C. in 5% CO2 until 90% confluent. Once confluent, cells were scraped and washed 3× times with cold PBS and lysed in PBS+protease inhibitor. Lysates were spun at 100,000×g for 45 minutes. Soluble fractions were treated with 25 μM of halogenated purine probes (unless stated) for 2 hrs (unless stated) at 37° C. Purine probe modified proteins were conjugated to rhodamine-azide by CuAAC, subjected to SDS-PAGE analysis, and detected by in-gel fluorescence scanning. SDS-PAGE gels were stained with Coomassie brilliant blue to determine protein load.

Structure (SMILES)	time of peak / most robust labeling in vivo (C57Bl/6 mice) [h]	labeling of recombinant eEF-SEC [1]	Number of Unique Modified Residues ([2]; Arginine (R))	Percentage of Modified Residues ([2]; Arginine (R)) [%]	Number of Unique Modified Residues ([2]; Asparagine (N))	Percentage of Modified Residues ([2]; Asparagine (N)) [%]	Number of Unique Modified Residues ([2]; Aspartic Acid (D))	Percentage of Modified Residues ([2]; Aspartic Acid (D)) [%]	Number of Unique Modified Residues ([2]; Cysteine (C), Byonic score>300)	Percentage of Modified Residues ([2]; Cysteine (C), Byonic score>300) [%]	Number of Unique Modified Residues ([2]; Glutamic Acid (E))	Percentage of Modified Residues ([2]; Glutamic Acid (E)) [%]	Number of Unique Modified Residues ([2]; Glutamine (Q))	Percentage of Modified Residues ([2]; Glutamine (Q)) [%]	Number of Unique Modified Residues ([2]; Histidine (H))	Percentage of Modified Residues ([2]; Histidine (H)) [%]	Number of Unique Modified Residues ([2]; Lysine (K))	Percentage of Modified Residues ([2]; Lysine (K)) [%]	Number of Unique Modified Residues ([2]; Methionine (M))	Percentage of Modified Residues ([2]; Methionine (M)) [%]	further results
C#CCn1cnc2nc(Cl)nc(Cl)c21 [Pu-1, 2,6-Dichloro-7-(prop-2-yn-1-yl)-7H-purine]	2	labeled in a time dependent manner	2	0.84	0	0	9	3.8	196	82	12	5.0	3	1.3	1	0.42	4	1.7	2	0.84	tissue with highest activity (C57Bl/6 mice): highest activity in lung; labeling profile in vivo across tissues (C57Bl/6 mice; IP or OG, lung, liver, spleen, heart, brain, kidney, WAT): most robust labeling profile in vivo; Number of Unique Modified Residues ([2]; Serine (S)): 1; Percentage of Modified Residues ([2]; Serine (S)): 0.42%; Number of Unique Modified Residues ([2]; Threonine (T)): 2; Percentage of Modified Residues ([2]; Threonine (T)): 0.84%; Number of Unique Modified Residues ([2]; Tryptophan (W)): 1; Percentage of Modified Residues ([2]; Tryptophan (W)): 0.42%; Number of Unique Modified Residues ([2]; Tyrosine (Y)): 6; Percentage of Modified Residues ([2]; Tyrosine (Y)): 2.5%; protein labeling activity in lysates [3]: highest protein labeling activity; reactivity of N7 versus N9 tautomers ([3]; lysates): more reactive; concentration dependence of labeling ([3]; proteomes): concentration dependent labeling of proteomes; time dependence of labeling ([3]; proteomes): time dependence in protein labeling
C#CCn1cnc2c(Cl)nc(Cl)nc21 [Pu-2, 2,6-Dichloro-9-(prop-2-yn-1-yl)-9H-purine]	4	labeled in a time dependent manner	19	1.6	0	0	44	3.7	952	80	68	5.7	39	3.3	12	1.0	24	2.0	7	0.59	Number of Unique Modified Residues ([2]; Serine (S)): 5; Percentage of Modified Residues ([2]; Serine (S)): 0.42%; Number of Unique Modified Residues ([2]; Threonine (T)): 6; Percentage of Modified Residues ([2]; Threonine (T)): 0.50%; Number of Unique Modified Residues ([2]; Tryptophan (W)): 3; Percentage of Modified Residues ([2]; Tryptophan (W)): 0.25%; Number of Unique Modified Residues ([2]; Tyrosine (Y)): 17; Percentage of Modified Residues ([2]; Tyrosine (Y)): 21.4%; protein labeling activity in lysates [3]: highest protein labeling activity; time dependence of labeling ([3]; proteomes): time dependence in protein labeling
